Article PMC12428237, “Study on the Calcium Transport-Promoting Property and Mechanism of the Peptide–Calcium Complex DEEENDQVK–Ca Based on a Caco-2 Monolayer Model” (Foods, 2025)

Columns and labels:
[1] = Caco-2; cited from earlier work
[2] = test system: Caco-2 monolayer; assay: Fluo-4 AM fluorescence imaging of intracellular calcium influx; format: cell-based, human; details: samples containing 150 μg/mL calcium, 24 h, Fluo-4 AM 4 μmol/L, confocal microscope
Protocol: Fluorescence imaging based on intracellular calcium influx was conducted to assess the calcium transport-promoting effect in the Caco-2 monolayer following the method of Men et al.. Log-phase cells were seeded at 1.5 × 10^5 cells/well in 35 mm laser confocal dishes and gently agitated to ensure uniform distribution. Cultures were maintained at 37 °C in 5% CO2 with daily medium replacement until confluent monolayers formed. Subsequently, CaCl2, DK + CaCl2, and DK–Ca solutions (each containing 150 μg/mL calcium) were added separately. The group without an added sample served as the control group. Following 24 h of incubation, the cells were washed thrice with prewarmed calcium-/magnesium-free HBSS buffer (pH 7.2). Under light-protected conditions, 200 µL of Fluo-4 AM (4 μmol/L) was applied to cover the cells. Following 30 min incubation at 37 °C and subsequent washes, cells were dark-adapted for 10 min at room temperature for de-esterification. Imaging was conducted using a confocal microscope (excitation at 496 nm, Zeiss LSM980 Airyscan2, Carl Zeiss, Germany ), followed by quantification of the fluorescence intensity with ImageJ 1.54 g software.

[3] = test system: claudin-2; assay: RT-qPCR, claudin-2 mRNA expression; format: cell-based, human; details: Caco-2 monolayer, 24 h, 2 mg/mL DK–Ca or 2 mg/mL DK + 7.5 mM CaCl2; normalized to GAPDH, 2^-ΔΔCt; n = 3
Protocol: (§1) The expression levels of genes related to calcium transport channels were determined following the method of Li et al.. After 21 days of establishing the Caco-2 monolayer model, the monolayers were treated for 24 h with a complete medium containing 2 mg/mL DK–Ca or 2 mg/mL DK + 7.5 mM CaCl2. The group without an added sample served as the control group. Subsequently, the monolayers were washed thrice with HBSS buffer before cell lysis using 200 μL RNAiso Plus. Total RNA was extracted, and first-strand cDNA synthesis was subsequently performed with the PrimeScript® RT reagent kit as per the kit manufacturer’s instructions. Using cDNA as a template, RT-qPCR was performed with gene-specific primers targeting TRPV6, calbindin-D9k, PMCA1b, occludin, and claudin-2. The standard procedure for PCR amplification was as follows: 95 °C for 30 s, followed by 40 cycles of 95 °C for 5 s, 60 °C for 30 s, and 72 °C for 1 min. Target gene expression level was normalized to GAPDH and calculated using the 2^^(-ΔΔCt) relative quantification method. In experimental groups, GAPDH served as the internal reference gene for normalization. All primer sequences used in this study are detailed in Table S1.

[4] = test system: PMCA1b; assay: RT-qPCR, PMCA1b mRNA expression; format: cell-based, human; details: Caco-2 monolayer, 24 h, 2 mg/mL DK–Ca or 2 mg/mL DK + 7.5 mM CaCl2; normalized to GAPDH, 2^-ΔΔCt; n = 3
Protocol: as §1

[5] = test system: calbindin-D9k; assay: RT-qPCR, calbindin-D9k mRNA expression; format: cell-based, human; details: Caco-2 monolayer, 24 h, 2 mg/mL DK–Ca or 2 mg/mL DK + 7.5 mM CaCl2; normalized to GAPDH, 2^-ΔΔCt; n = 3
Protocol: as §1

[6] = test system: TRPV6; assay: RT-qPCR, TRPV6 mRNA expression; format: cell-based, human; details: Caco-2 monolayer, 24 h, 2 mg/mL DK–Ca or 2 mg/mL DK + 7.5 mM CaCl2; normalized to GAPDH, 2^-ΔΔCt; n = 3
Protocol: as §1

[7] = test system: Caco-2 monolayer; assay: Calcium transport channel assay with channel regulators; format: cell-based, human; details: then 2 mg/mL sample, 120 min, 37 °C, n = 3
Protocol: Before the calcium transport channel assay, 0.5 mL of HBSS buffer containing different channel regulators was added to the AP sides of the Transwell chambers. These channel regulators included 2-APB (25 μmol/L) as a calcium channel inhibitor of TRPV6, cytochalasin D (0.5 μmol/ mL) as a paracellular channel promoter, and mβCD (3 mmol/L) as an endocytic channel inhibitor. The group without the added channel regulator served as the control group. The BL side received a 1.5 mL HBSS buffer. Following 30 min incubation, solutions were removed from both sides. The AP side was then loaded with 0.5 mL of either DK–Ca (2 mg/mL) or 2 mg/mL DK + 7.5 mM CaCl2 solution, while the BL side received 1.5 mL HBSS. After 120 min incubation at 37 °C and 5% CO2, the BL solution was collected for calcium transport analysis.

DEEENDQVK–Ca [DK–Ca, complex formed by chemically chelating DK with CaCl2]
calcium dialysis rate relative to CaCO3 [1]: 1.79 times | solubility relative to blank control group (CaCO3) [1]: 1.56 times | fluorescence intensity (intracellular calcium influx) compared to the control group [2]: significantly increased | claudin-2 mRNA expression, upregulation compared to the control group [3]: 1.50 fold | PMCA1b mRNA expression, upregulation compared to the untreated control group [4]: 2.17 fold | calbindin-D9k mRNA expression, upregulation compared to the untreated control group [5]: 2.26 fold | TRPV6 mRNA expression, upregulation compared to the untreated control group [6]: 2.70 fold | reduction of transported calcium by 2-APB treatment compared to the control group ([7]; 2-APB (25 μmol/L, TRPV6 inhibitor) pre-incubation 30 min on AP side): 43.94% | improvement of transported calcium by cytochalasin D treatment compared to the control group ([7]; cytochalasin D (0.5 μmol/ mL, paracellular channel promoter) pre-incubation 30 min on AP side): 14.82% | reduction of transported calcium by mβCD treatment compared to the control group ([7]; mβCD (3 mmol/L, endocytic channel inhibitor) pre-incubation 30 min on AP side): 12.35%
